The results in this text go back to patent US6482921B1, “Uridyl peptide antibiotic (UPA) derivatives, their synthesis and use” (Essential Therapeutics, Inc., priority 1999, dated 2002).

Holding throughout (assay type): cell-based
For assay [1], the system named is Pseudomonas aeruginosa PAM 1323. Briefly: MIC broth microdilution, P. aeruginosa PAM 1323 (medium level UPA resistance). (In broth dilution the organism is exposed to a series of concentrations in liquid medium.)
The test system of assay [2] is Escherichia Coli MC 4100 AcrAB. Briefly: MIC broth microdilution, E. coli MC 4100 AcrAB (ΔAcrAB). The conditions noted are these: E. coli AcrAB.
For assay [3], the system named is Staphylococcus aureus ATCC 29213. Briefly: MIC broth microdilution, S. aureus ATCC 29213 (wild type). The settings on record: S. aureus ATCC 29213.
The subject of assay [4] is Pseudomonas aeruginosa PAM 1135. The assay is described as follows: MIC broth microdilution, P. aeruginosa PAM 1135 (high level UPA resistance). The settings on record: P. aeruginosa PAM 1135 UPA1^r.
The subject of assay [5] is Pasteurella multocida pm002. Briefly: MIC broth microdilution, P. multocida pm002 (wild type).
The next assay deals with Escherichia Coli MC 4100. Briefly: MIC broth microdilution, E. coli MC 4100 (wild type). The settings on record: E. coli MC 4100.
Assay [6] concerns Staphylococcus aureus 8325-4. The assay is described as follows: MIC broth microdilution, S. aureus 8325-4 (wild type). The settings on record: S. aureus 8325-4.
The test system of assay [7] is Pseudomonas aeruginosa PAM 1020. The assay is described as follows: MIC broth microdilution, P. aeruginosa PAM 1020 (wild type). The conditions noted are these: P. aeruginosa PAM 1020.
For assay [8], the system named is Pseudomonas aeruginosa PAM 1154. Briefly: MIC broth microdilution, P. aeruginosa PAM 1154 (OprM::Hg). The settings on record: P. aeruginosa PAM 1154 OprM::Hg.
For assay [9], the system named is Escherichia Coli MC 4100 AcrAB UPA3r. The assay is described as follows: MIC broth microdilution, E. coli MC 4100 AcrAB UPA3r (ΔAcrAB, UPA resistant). The conditions noted are these: E. coli AcrAB UPA3^r.

≈ marks a conversion by molar mass, not a printed value.

As to `CC(C(NC(=O)C(Cc1ccc(F)cc1)NC(=O)NC(Cc1c[nH]c2ccccc12)C(=O)O)C(=O)NCC1CC(O)C(n2ccc(=O)[nH]c2=O)O1)N(C)C(=O)C(N)Cc1ccc(F)cc1` [Compound 118, 1-[5′-(2S,3S)-N^2-[N-[[(1S)-1-Carboxy-2-indol-3-ylethyl]carbamoyl]-L-4-fluorophenylalanyl]-N^3-L-4-fluorophenylalanyl-N^3-methyl-2,3-diaminobutyramido]-3′,5′-dideoxy-α-L-arabinofuranosyl]uracil], the “MIC (μg/ml) Broth microdilution” value in [1] was 256 µg/mL (≈ 284 µM); in assay [2], 8 µg/mL (≈ 8.87 µM); in assay [3], greater than 512 µg/mL; in assay [4], 256 µg/mL (≈ 284 µM); in assay [5] it was 256 µg/mL (≈ 284 µM); against Escherichia Coli MC 4100 it was 512 µg/mL (≈ 568 µM). Further, the “MIC (μg/ml) Broth microdilution” value in assay [6] is greater than 512 µg/mL; in assay [7], 128 µg/mL (≈ 142 µM); in assay [8], 128 µg/mL (≈ 142 µM); in [9] it was 256 µg/mL (≈ 284 µM).
Take `CC(N)C(=O)N(C)C(C)C(NC(=O)C(Cc1cccs1)NC(=O)NC(Cc1ccc(O)cc1)C(=O)O)C(=O)NCC1CC(O)C(n2ccc(=O)[nH]c2=O)O1` [Compound 119, 1-[5-[(2S,3S)-N^3-L-Alanyl-N^2-[N-[[(1S)-1-carboxy-4-hydroxyphenethyl]carbamoyl]-L-3-(2-thienyl)alanyl]-N^3-methyl-2,3-diaminobutyramido]-3′,5′-dideoxy-α-L-arabinofuranosyl]uracil]: the “MIC (μg/ml) Broth microdilution” value in [1] is greater than 512 µg/mL; in assay [2] it was 4 µg/mL (≈ 5.18 µM); in assay [3], greater than 512 µg/mL; in assay [4], greater than 512 µg/mL; in assay [5], greater than 512 µg/mL; in the assay on Escherichia Coli MC 4100, greater than 512 µg/mL. For the same compound, the “MIC (μg/ml) Broth microdilution” value in [6] was greater than 512 µg/mL; in assay [7] it was 64 µg/mL (≈ 82.8 µM); in [8], 32 µg/mL (≈ 41.4 µM); in assay [9], 64 µg/mL (≈ 82.8 µM).
As to `CC(C)CC(NC(=O)NC(Cc1ccc(O)cc1)C(=O)O)C(=O)NC(C(=O)NCC1CC(O)C(n2ccc(=O)[nH]c2=O)O1)C(C)N(C)C(=O)CN` [Compound 120, 1-[5′-[(2S,3S)-N^2-[N-[[(1S)-1-Carboxy-4-hydroxyphenethyl]carbamoyl]-L-leucyl)-N^3-glycyl-N^3-methyl-2,3-diaminobutyramidol-3′,5′-dideoxy-α-L-arabinofuranosyl]uracil], the “MIC (μg/ml) Broth microdilution” value was 512 µg/mL (≈ 712 µM) in [1]; 8 µg/mL (≈ 11.1 µM) in [2]; greater than 512 µg/mL in [3]; greater than 512 µg/mL in assay [4]; 512 µg/mL (≈ 712 µM) in [5]; greater than 512 µg/mL with Escherichia Coli MC 4100. The “MIC (μg/ml) Broth microdilution” value in assay [6] was greater than 512 µg/mL; in [7], 16 µg/mL (≈ 22.3 µM); in assay [8], 4 µg/mL (≈ 5.57 µM); in assay [9], 128 µg/mL (≈ 178 µM).
`CC(NC(=O)NC(Cc1c[nH]c2ccccc12)C(=O)O)C(=O)NC(C(=O)NCC1CC(O)C(n2ccc(=O)[nH]c2=O)O1)C(C)N(C)C(=O)CN` [Compound 121, 1-[5′1-[(2S,3S)-N^2-[N-[[(1S)-1-Carboxy-2-indol-3-ylethyl)carbamoyl]-L-alanyl]-N^3-glycyl-N^3-methyl-2,3-diaminobutyramido]-3′,5′-dideoxy-α-L-arabinofuranosyl]uracil]: the “MIC (μg/ml) Broth microdilution” value in [1] was greater than 512 µg/mL; in assay [2], 2 µg/mL (≈ 2.86 µM); in assay [3], greater than 512 µg/mL; in [4] it was greater than 512 µg/mL; in [5], greater than 512 µg/mL; in the assay with Escherichia Coli MC 4100 it was greater than 512 µg/mL. For the same compound, the “MIC (μg/ml) Broth microdilution” value is greater than 512 µg/mL in assay [6], 64 µg/mL (≈ 91.5 µM) in [7], 4 µg/mL (≈ 5.72 µM) in assay [8] and 16 µg/mL (≈ 22.9 µM) in assay [9].
For the compound `CC(N)C(=O)N(C)C(C)C(NC(=O)C(Cc1ccccc1)NC(=O)NC(Cc1ccccc1)C(=O)O)C(=O)NCC1CC(O)C(n2ccc(=O)[nH]c2=O)O1` [Compound 122, 1-[5′-[[(2S,3S)-N^3-L-Alanyl-N^2-[N-[[(1S)-1-carboxy-phenethyl]carbamoyl]-L-phenylalanyl]-N^3-methyl-2,3-diaminobutyramido]-3′,5′-dideoxy-α-L-arabinofuranosyl]uracil], the “MIC (μg/ml) Broth microdilution” value in [1] is greater than 512 µg/mL; in assay [2], 4 µg/mL (≈ 5.33 µM); in assay [3], greater than 512 µg/mL; in assay [4] it was greater than 512 µg/mL; in assay [5] it was greater than 512 µg/mL; against Escherichia Coli MC 4100 it was greater than 512 µg/mL. The “MIC (μg/ml) Broth microdilution” value in assay [6] is 512 µg/mL (≈ 682 µM); in assay [7] it was 64 µg/mL (≈ 85.2 µM); in assay [8], 16 µg/mL (≈ 21.3 µM); in assay [9], 64 µg/mL (≈ 85.2 µM).
For `CC(C(NC(=O)C(Cc1ccccc1)NC(=O)NC(Cc1c[nH]c2ccccc12)C(=O)O)C(=O)NCC1CC(O)C(n2ccc(=O)[nH]c2=O)O1)N(C)C(=O)CCCCN` [Compound 123, 1-[5′-[(2S,3S)-N^3-(5-Aminopentanoyl)-N^2-[N-[[(1S)-1-carboxy-2-indol-3-ylethyl]carbamoyl]-L-phenylalanyl]-N^3-methyl-2,3-diaminobutyramido]-3′,5′-dideoxy-α-L-arabinofuranosyl]uracil], the “MIC (μg/ml) Broth microdilution” value in [1] was 256 µg/mL (≈ 313 µM); in assay [2] it was 4 µg/mL (≈ 4.89 µM); in [3] it was greater than 512 µg/mL; in [4], 256 µg/mL (≈ 313 µM); in [5], greater than 512 µg/mL; against Escherichia Coli MC 4100, 512 µg/mL (≈ 626 µM). The “MIC (μg/ml) Broth microdilution” value was greater than 512 µg/mL in assay [6], 32 µg/mL (≈ 39.1 µM) in assay [7], 16 µg/mL (≈ 19.6 µM) in assay [8] and 512 µg/mL (≈ 626 µM) in assay [9].
Consider `CC(C(NC(=O)C(Cc1ccc(F)cc1)NC(=O)NC(Cc1ccc(O)cc1)C(=O)O)C(=O)NCC1CC(O)C(n2ccc(=O)[nH]c2=O)O1)N(C)C(=O)CCCCN` [Compound 124, 1-[5′-[(2S,3S)-N^3-(5-Aminopentanoyl)-N^2-[N-[[(1S)-1-carboxy-4-hydroxyphenethyl]carbamoyl]-L-4-fluorophenylalanyl]-N^3-methyl-2,3-diaminobutyramido]-3′,5′-dideoxy-α-L-arabinofuranosyl]uracil], for which the “MIC (μg/ml) Broth microdilution” value in assay [1] is greater than 512 µg/mL; in assay [2], 2 µg/mL (≈ 2.46 µM); in assay [3], greater than 512 µg/mL; in assay [4] it was greater than 512 µg/mL; in assay [5], greater than 512 µg/mL; against Escherichia Coli MC 4100, 256 µg/mL (≈ 315 µM). In addition, the “MIC (μg/ml) Broth microdilution” value is greater than 512 µg/mL in assay [6], 512 µg/mL (≈ 630 µM) in [7], 128 µg/mL (≈ 157 µM) in [8] and 128 µg/mL (≈ 157 µM) in assay [9].
With `CC(N)C(=O)N(C)C(C)C(NC(=O)C(Cc1ccccc1)NC(=O)NC(Cc1cccs1)C(=O)O)C(=O)NCC1CC(O)C(n2ccc(=O)[nH]c2=O)O1` [Compound 125, 1-[5′-[(2S,3S)-N^3-L-Alanyl-N^2-[N-[[(1S)-1-carboxy-2-(2-thienyl)ethyl]carbamoyl]-L-phenylalanyl]-N^3-methyl-2,3-diaminobutyramidol-3′,5′-dideoxy-α-L-arabinofuranosyl]uracil], the “MIC (μg/ml) Broth microdilution” value is greater than 512 µg/mL in assay [1]; 8 µg/mL (≈ 10.6 µM) in assay [2]; greater than 512 µg/mL in assay [3]; greater than 512 µg/mL in assay [4]; greater than 512 µg/mL in assay [5]; greater than 512 µg/mL against Escherichia Coli MC 4100. For the same compound, the “MIC (μg/ml) Broth microdilution” value in assay [6] is greater than 512 µg/mL; in assay [7] it was 64 µg/mL (≈ 84.6 µM); in [8], 8 µg/mL (≈ 10.6 µM); in [9], 64 µg/mL (≈ 84.6 µM).
Turning to `CC(N)C(=O)N(C)C(C)C(NC(=O)C(Cc1ccc([N+](=O)[O-])cc1)NC(=O)NC(Cc1ccc(O)cc1)C(=O)O)C(=O)NCC1CC(O)C(n2ccc(=O)[nH]c2=O)O1` [Compound 126, 1-[5′-[(2S,3S)-N^3-L-Alanyl-N^2-[N-[[(1S)-1-carboxy-4-hydroxyphenethyl]carbamoyl]-L-4-nitrophenylalanine-N^3-methyl-2,3-diaminobutyramido]-3′,5′-dideoxy-α-L-arabinofuranosyl]uracil], the “MIC (μg/ml) Broth microdilution” value in [1] was greater than 512 µg/mL; in assay [2] it was less than 1 µg/mL; in assay [3], 512 µg/mL (≈ 631 µM); in assay [4], greater than 512 µg/mL; in assay [5], 512 µg/mL (≈ 631 µM); against Escherichia Coli MC 4100 it was 16 µg/mL (≈ 19.7 µM). Also, the “MIC (μg/ml) Broth microdilution” value amounted to 256 µg/mL (≈ 315 µM) in [6], 128 µg/mL (≈ 158 µM) in assay [7], 16 µg/mL (≈ 19.7 µM) in [8] and 4 µg/mL (≈ 4.93 µM) in assay [9].
